According to patent US8211856B2, “Use of somatostatin-14 as a therapeutic agent” (mondoBIOTECH Laboratories AG, priority 2007, dated 2012):
No end group written: not given here.

Experiments:
HUVEC = experiment: Endothelial tube formation assay; assay type: cell-based, human; conditions: 10 micrograms per ml; 20 hours
Excerpt: Positive control was vehicle only.

[1] = test system: hepatitis B virus (HBV) ayw strain; experiment: HBV experimental assay system (HepG2-2.2.15, TaqMan PCR of secreted HBV DNA); assay type: cell-based; conditions: 10 micrograms per ml; six days; HBV DNA in supernatant
Human A549 cells [2] = experiment: Apoptosis prevention assay (C2 ceramide, Annexin-5); assay type: cell-based; conditions: 10 micrograms per ml; 30 min pretreatment, then C2 ceramide
Protocol: Human A549 cells (carcinomic human alveolar basal epithelial cells) were utilized in the experiments employing the Annexin-5 apoptosis assay. […] A549 cells were pretreated for 30 min with test peptides—10 micrograms per ml—followed by the exposure to C2 ceramide.

Human A549 cells [3] = experiment: Apoptosis induction assay (Annexin-5); assay type: cell-based; conditions: 10 micrograms per ml; 24 hours
murine spleen cells = experiment: Th1/Th2 cytokine profiling assay (Ovalbumin-restimulated spleen cells); assay type: cell-based, Balb/c mice; conditions: 10 micrograms per ml; Ovalbumin restimulation, 72 hours
Excerpt: The Balb/c mice (originated in 1923, it is a popular strain and is used in many different research disciplines. Also classified as an inbred from the production of 20 or more successive brother-sister matings, the Balb/c mouse is albino and small in size) were immunized on Days 1, 15, and 29 with Ovalbumin (Ovalbumin is the main protein found in egg white, commonly used to stimulate an immunological reaction in test animals) in PBS (5 micrograms/injection). On day 50, spleens of the mice were harvested (3 weeks after last boost with Ovalbumin). […] Thereafter, additional Ovalbumin was added to the cells at 10 micrograms/ml for in vitro restimulation of the cells. 72 hours later, cell supernatants were harvested and assayed using the Becton Dickinson Mouse Th1/Th2 Cytokine CBA Kit.

HCMV strain AD169 = experiment: HCMV plaque formation assay in MRC-5 cells; assay type: cell-based; conditions: for inhibition of HCMV plaque formation as compared to the virus control experiment: 10 micrograms per ml, 7-10 days
[4] = test system: Primary Human endothelial cells (HUVEC); experiment: Endothelial cell migration assay; assay type: cell-based; conditions: 10 micrograms per ml; 22 hours
HIV-1IIIB = experiment: HIV-1 antiviral assay in CEM-SS cells; conditions: HIV-1 assay

Compound	tube formation of human endothelial cells, inhibited by (HUVEC) [%]	inhibition of HBV replication as compared to the virus control infection [1] [%]	induction of apoptosis on human lung cells (Human A549 cells [3]) [%]	production of IL-2, induced by (murine spleen cells) [%]	production of IL-4, induced by (murine spleen cells)	production of IL-5, decreased by (murine spleen cells)	production of TNF-alpha, induced by (murine spleen cells)	inhibition of HCMV plaque formation as compared to the virus control experiment (HCMV strain AD169) [%]	antiviral activity of positive control compounds (HIV-1IIIB)	further results
Ala-Gly-Cys-Lys-Asn-Phe-Phe-Trp-Lys-Thr-Phe-Thr-Ser-Cys-OH (AGCKNFFWKTFTSC-OH; ends and bridges not checked) [Peptide 1]	9	14.1	9.4	102.7	did not significantly change	did not significantly change	27.5%	1.8		induction of apoptosis on human lung cells (ceramide-induced apoptosis) (Human A549 cells [2]): 27%; production of IFN-gamma, induced by (murine spleen cells): 65.1%; migration of human endothelial cells, inhibited by [4]: 3%
Cc1cn([C@H]2C[C@H](N=[N+]=[N-])[C@@H](CO)O2)c(=O)[nH]c1=O [AZT]									expected levels of antiviral activity	
CC(C)(C)NC(=O)[C@@H]1CN(Cc2cccnc2)CCN1C[C@@H](O)C[C@@H](Cc1ccccc1)C(=O)N[C@H]1c2ccccc2C[C@H]1O [indinavir]									expected levels of antiviral activity	
Nc1nc(O)c2ncn(COC(CO)CO)c2n1 [Ganciclovir, reference compound]										antiviral activity of positive control compound (HCMV strain AD169; positive control, HCMV assay): expected levels of antiviral activity
Gly-Pro-Glu-OH [Peptide 2]	20	30.7	1.4	24.0	52.7%	37.2%	did not significantly change	2.9		production of IFN-gamma, decreased by (murine spleen cells): 42.5%; migration of human endothelial cells, induced by [4]: 11%
